Test results reported in the NIST ThermoML archive (doi:10.1021/je060271a).
Several values for one entry are separate records, joined by “and”; a condition that tells them apart may be missing. Equal entries are not always repeated.

Conditions: 323.16 K, Liquid, Vibrating tube method

CCCCCC(=O)OCC(COC(=O)CCCCC)(COC(=O)CCCCC)COC(=O)CCCCC [pentaerythritol tetrahexanoate]
Conditions | mass density
1057.9 kPa | 973.4 kg/m3
1108.4 kPa | 973.5 kg/m3
1111.9 kPa | 973.6 kg/m3
1116.1 kPa | 973.5 kg/m3
1120.2 kPa | 973.4 kg/m3
1124.1 kPa | 973.4 kg/m3
1169 kPa | 973.6 kg/m3
1173 kPa | 973.5 kg/m3
1178.4 kPa | 973.6 kg/m3
1182.7 kPa | 973.5 kg/m3
1188.3 kPa | 973.4 kg/m3
1192.5 kPa | 973.4 kg/m3
1197 kPa | 973.5 kg/m3
1201.3 kPa | 973.4 kg/m3
1206.2 kPa | 973.5 kg/m3
1211.4 kPa | 973.6 kg/m3
1215.4 kPa | 973.6 kg/m3
1219.4 kPa | 973.6 kg/m3
1224.6 kPa | 973.5 kg/m3
1228.9 kPa | 973.6 kg/m3
1234 kPa | 973.5 kg/m3
1239.2 kPa | 973.4 kg/m3
1336.1 kPa | 973.5 kg/m3
1340.9 kPa | 973.6 kg/m3
1346.8 kPa | 973.6 kg/m3
1352 kPa | 973.7 kg/m3
1357.4 kPa | 973.6 kg/m3
1362.4 kPa | 973.6 kg/m3
1368 kPa | 973.6 kg/m3
1372.9 kPa | 973.7 kg/m3
1383.8 kPa | 973.7 kg/m3
1389.5 kPa | 973.7 kg/m3
1395.4 kPa | 973.6 kg/m3
1400.6 kPa | 973.7 kg/m3
1405.7 kPa | 973.7 kg/m3
1542.7 kPa | 973.7 kg/m3
1548.7 kPa | 973.7 kg/m3
1555.9 kPa | 973.7 kg/m3
1561.4 kPa | 973.8 kg/m3
1568.9 kPa | 973.8 kg/m3
1574.8 kPa | 973.8 kg/m3
1580.3 kPa | 973.9 kg/m3
1587.3 kPa | 973.9 kg/m3
1592.8 kPa | 974 kg/m3
1784.1 kPa | 973.9 kg/m3
1792.4 kPa | 974 kg/m3
1799.4 kPa | 973.9 kg/m3
1808.1 kPa | 974 kg/m3
1815.2 kPa | 974 kg/m3
1823.9 kPa | 974 kg/m3
1831.3 kPa | 974 kg/m3
1839.8 kPa | 974 kg/m3
1848.7 kPa | 974 kg/m3
1856.1 kPa | 973.9 kg/m3
1864.5 kPa | 974 kg/m3
1872.1 kPa | 974 kg/m3
1879.9 kPa | 973.9 kg/m3
1889.3 kPa | 974 kg/m3
1998.3 kPa | 974 kg/m3
2007.3 kPa | 974 kg/m3
2015.3 kPa | 974.1 kg/m3
2024.8 kPa | 974.2 kg/m3
2032.8 kPa | 974.2 kg/m3
2042.2 kPa | 974.1 kg/m3
2051.9 kPa | 974.2 kg/m3
2078.2 kPa | 974.2 kg/m3
2086.8 kPa | 974.2 kg/m3
2097.3 kPa | 974.1 kg/m3
2105.3 kPa | 974.2 kg/m3
2275.9 kPa | 974.3 kg/m3
2285.6 kPa | 974.2 kg/m3
2297.5 kPa | 974.3 kg/m3
2309.2 kPa | 974.3 kg/m3
2319 kPa | 974.3 kg/m3
2329.5 kPa | 974.3 kg/m3
2339.5 kPa | 974.4 kg/m3
2350.8 kPa | 974.3 kg/m3
2360.3 kPa | 974.3 kg/m3
2372.6 kPa | 974.1 kg/m3
2382.7 kPa | 974.2 kg/m3
2394.7 kPa | 974.5 kg/m3
2404.4 kPa | 974.2 kg/m3
2416.5 kPa | 974.4 kg/m3
2428.5 kPa | 974.4 kg/m3
2438.7 kPa | 974.4 kg/m3
2448.6 kPa | 974.5 kg/m3
2460.9 kPa | 974.4 kg/m3
2471.7 kPa | 974.4 kg/m3
2484.5 kPa | 974.5 kg/m3
3633.2 kPa | 975.3 kg/m3
3649.5 kPa | 975.3 kg/m3
3663.4 kPa | 975.2 kg/m3
3679.8 kPa | 975.3 kg/m3
3696.6 kPa | 975.2 kg/m3
3710.8 kPa | 975.3 kg/m3
3725 kPa | 975.2 kg/m3
3741.8 kPa | 975.2 kg/m3
3756 kPa | 975.3 kg/m3
3773.4 kPa | 975.3 kg/m3
3790.9 kPa | 975.4 kg/m3
9966.7 kPa | 979.5 kg/m3
9977.9 kPa | 979.5 kg/m3
10002 kPa | 979.7 kg/m3
10012 kPa | 979.7 kg/m3
10025 kPa | 979.6 kg/m3
10037 kPa | 979.6 kg/m3
10040 kPa | 979.6 kg/m3
10048 kPa | 979.7 kg/m3
10060 kPa | 979.7 kg/m3
10071 kPa | 979.8 kg/m3
10084 kPa | 979.7 kg/m3
10096 kPa | 979.7 kg/m3
11088 kPa | 980.3 kg/m3
11101 kPa | 980.4 kg/m3
11112 kPa | 980.3 kg/m3
11122 kPa | 980.3 kg/m3
11136 kPa | 980.4 kg/m3
11150 kPa | 980.5 kg/m3
11155 kPa | 980.3 kg/m3
11157 kPa | 980.4 kg/m3
11160 kPa | 980.4 kg/m3
11163 kPa | 980.4 kg/m3
11168 kPa | 980.4 kg/m3
11174 kPa | 980.3 kg/m3
11186 kPa | 980.4 kg/m3
11198 kPa | 980.4 kg/m3
11199 kPa | 980.3 kg/m3
11200 kPa | 980.4 kg/m3
12660 kPa | 981.3 kg/m3
12684 kPa | 981.3 kg/m3
12713 kPa | 981.5 kg/m3
12737 kPa | 981.5 kg/m3
12767 kPa | 981.4 kg/m3
12791 kPa | 981.5 kg/m3
12819 kPa | 981.5 kg/m3
12848 kPa | 981.4 kg/m3
12871 kPa | 981.5 kg/m3
12899 kPa | 981.4 kg/m3
15446 kPa | 983.2 kg/m3
15470 kPa | 983.2 kg/m3
15500 kPa | 983.1 kg/m3
16331 kPa | 983.8 kg/m3 and 983.7 kg/m3
16333 kPa | 983.7 kg/m3
16334 kPa | 983.8 kg/m3 and 983.7 kg/m3
16336 kPa | 983.8 kg/m3
